{
  "source": "ChEMBL document CHEMBL2062516",
  "about": "“Design, synthesis and antibacterial activities of a series of new 2-oxaisocephems” (2012)",
  "assay_type_in_all_cases": "functional",
  "key": {"Staphylococcus aureus [1]": {"system": "Staphylococcus aureus", "assay": "Antibacterial activity against Staphylococcus aureus ATCC 25923"}, "[2]": {"system": "Staphylococcus epidermidis", "assay": "Antibacterial activity against Staphylococcus epidermidis"}, "Escherichia coli": {"system": "Escherichia coli", "assay": "Antibacterial activity against Escherichia coli ATCC 25922"}, "Pseudomonas aeruginosa [3]": {"system": "Pseudomonas aeruginosa", "assay": "Antibacterial activity against Pseudomonas aeruginosa ATCC 27853"}, "Klebsiella pneumoniae": {"system": "Klebsiella pneumoniae", "assay": "Antibacterial activity against Klebsiella pneumoniae"}, "Staphylococcus aureus [4]": {"system": "Staphylococcus aureus", "assay": "Ratio MIC for ceftazidime to compound MIC for Staphylococcus aureus ATCC 25923"}, "Pseudomonas aeruginosa [5]": {"system": "Pseudomonas aeruginosa", "assay": "Ratio MIC for ceftazidime to compound MIC for Pseudomonas aeruginosa ATCC 27853"}},
  "data": [
    {"molecule": "CCO/N=C(\\C(=O)N[C@@H]1C(=O)N2C(C(=O)O)=C(CSc3nnnn3CCO)OC[C@H]12)c1nsc(N)n1", "values": [
      {"measurement": "MIC", "setting": "Staphylococcus aureus [1]", "result": 0.5, "unit": "µg/mL"},
      {"measurement": "MIC", "setting": "[2]", "result": 0.125, "unit": "µg/mL"},
      {"measurement": "MIC", "setting": "Escherichia coli", "result": 2, "unit": "µg/mL"},
      {"measurement": "MIC", "setting": "Pseudomonas aeruginosa [3]", "result": 64, "unit": "µg/mL"},
      {"measurement": "MIC", "setting": "Klebsiella pneumoniae", "result": 64, "unit": "µg/mL"}
    ]},
    {"molecule": "CO/N=C(\\C(=O)N[C@@H]1C(=O)N2C(C(=O)O)=C(CSc3nnnn3CCO)OC[C@H]12)c1nsc(N)n1", "values": [
      {"measurement": "MIC", "setting": "Staphylococcus aureus [1]", "result": 0.5, "unit": "µg/mL"},
      {"measurement": "MIC", "setting": "[2]", "result": 16, "unit": "µg/mL"},
      {"measurement": "MIC", "setting": "Escherichia coli", "result": 2, "unit": "µg/mL"},
      {"measurement": "MIC", "setting": "Pseudomonas aeruginosa [3]", "result": 16, "unit": "µg/mL"},
      {"measurement": "MIC", "setting": "Klebsiella pneumoniae", "result": 32, "unit": "µg/mL"},
      {"measurement": "Ratio", "setting": "Staphylococcus aureus [4]", "result": 4}
    ]},
    {"molecule": "CC(C)O/N=C(\\C(=O)N[C@@H]1C(=O)N2C(C(=O)O)=C(CSc3nnnn3CCO)OC[C@H]12)c1nsc(N)n1", "values": [
      {"measurement": "MIC", "setting": "Staphylococcus aureus [1]", "result": 0.5, "unit": "µg/mL"},
      {"measurement": "MIC", "setting": "[2]", "result": 0.125, "unit": "µg/mL"},
      {"measurement": "MIC", "setting": "Escherichia coli", "result": 0.5, "unit": "µg/mL"},
      {"measurement": "MIC", "setting": "Pseudomonas aeruginosa [3]", "result": 8, "unit": "µg/mL"},
      {"measurement": "MIC", "setting": "Klebsiella pneumoniae", "result": 32, "unit": "µg/mL"}
    ]},
    {"molecule": "CCCCCO/N=C(\\C(=O)N[C@@H]1C(=O)N2C(C(=O)O)=C(CSc3nnnn3CCO)OC[C@H]12)c1nsc(N)n1", "values": [
      {"measurement": "MIC", "setting": "Staphylococcus aureus [1]", "result": 16, "unit": "µg/mL"},
      {"measurement": "MIC", "setting": "[2]", "result": 0.125, "unit": "µg/mL"},
      {"measurement": "MIC", "setting": "Escherichia coli", "result": 8, "unit": "µg/mL"},
      {"measurement": "MIC", "setting": "Pseudomonas aeruginosa [3]", "result": 4, "unit": "µg/mL"},
      {"measurement": "MIC", "setting": "Klebsiella pneumoniae", "result": 32, "unit": "µg/mL"},
      {"measurement": "Ratio", "setting": "Pseudomonas aeruginosa [5]", "result": 2}
    ]},
    {"molecule": "CO/N=C(\\C(=O)N[C@@H]1C(=O)N2C(C(=O)O)=C(CSc3nncs3)OC[C@H]12)c1nsc(N)n1", "values": [
      {"measurement": "MIC", "setting": "Staphylococcus aureus [1]", "result": 64, "unit": "µg/mL"},
      {"measurement": "MIC", "setting": "[2]", "result": 16, "unit": "µg/mL"},
      {"measurement": "MIC", "setting": "Escherichia coli", "result": 64, "unit": "µg/mL"},
      {"measurement": "MIC", "setting": "Pseudomonas aeruginosa [3]", "result": 32, "unit": "µg/mL"},
      {"measurement": "MIC", "setting": "Klebsiella pneumoniae", "result": 8, "unit": "µg/mL"}
    ]},
    {"molecule": "CC(C)(O/N=C(\\C(=O)N[C@@H]1C(=O)N2C(C(=O)[O-])=C(C[n+]3ccccc3)CS[C@H]12)c1csc(N)n1)C(=O)O", "note": "[CEFTAZIDIME]", "values": [
      {"measurement": "MIC", "setting": "Staphylococcus aureus [1]", "result": 2, "unit": "µg/mL"},
      {"measurement": "MIC", "setting": "[2]", "result": 16, "unit": "µg/mL"},
      {"measurement": "MIC", "setting": "Escherichia coli", "result": 4, "unit": "µg/mL"},
      {"measurement": "MIC", "setting": "Pseudomonas aeruginosa [3]", "result": 16, "unit": "µg/mL"},
      {"measurement": "MIC", "setting": "Klebsiella pneumoniae", "result": 32, "unit": "µg/mL"}
    ]},
    {"molecule": "CCO/N=C(\\C(=O)N[C@@H]1C(=O)N2C(C(=O)O)=C(CSc3nncs3)OC[C@H]12)c1nsc(N)n1", "values": [
      {"measurement": "MIC", "setting": "Staphylococcus aureus [1]", "result": 64, "unit": "µg/mL"},
      {"measurement": "MIC", "setting": "[2]", "result": 128, "unit": "µg/mL"},
      {"measurement": "MIC", "setting": "Escherichia coli", "result": 128, "unit": "µg/mL"},
      {"measurement": "MIC", "setting": "Pseudomonas aeruginosa [3]", "result": 128, "unit": "µg/mL"},
      {"measurement": "MIC", "setting": "Klebsiella pneumoniae", "result": 128, "unit": "µg/mL"}
    ]},
    {"molecule": "CC(C)CCO/N=C(\\C(=O)N[C@@H]1C(=O)N2C(C(=O)O)=C(CSc3nnnn3CCO)OC[C@H]12)c1nsc(N)n1", "values": [
      {"measurement": "MIC", "setting": "Staphylococcus aureus [1]", "result": 4, "unit": "µg/mL"},
      {"measurement": "MIC", "setting": "[2]", "result": 0.125, "unit": "µg/mL"},
      {"measurement": "MIC", "setting": "Escherichia coli", "result": 16, "unit": "µg/mL"},
      {"measurement": "MIC", "setting": "Pseudomonas aeruginosa [3]", "result": 8, "unit": "µg/mL"},
      {"measurement": "MIC", "setting": "Klebsiella pneumoniae", "result": 64, "unit": "µg/mL"},
      {"measurement": "Ratio", "setting": "Pseudomonas aeruginosa [5]", "result": 2}
    ]},
    {"molecule": "CC(C)CCO/N=C(\\C(=O)N[C@@H]1C(=O)N2C(C(=O)O)=C(CSc3nncs3)OC[C@H]12)c1nsc(N)n1", "values": [
      {"measurement": "MIC", "setting": "Staphylococcus aureus [1]", "result": 128, "unit": "µg/mL"},
      {"measurement": "MIC", "setting": "[2]", "result": 128, "unit": "µg/mL"},
      {"measurement": "MIC", "setting": "Escherichia coli", "result": 128, "unit": "µg/mL"},
      {"measurement": "MIC", "setting": "Pseudomonas aeruginosa [3]", "result": 128, "unit": "µg/mL"},
      {"measurement": "MIC", "setting": "Klebsiella pneumoniae", "result": 128, "unit": "µg/mL"}
    ]},
    {"molecule": "Nc1nc(/C(=N/OC2CCCC2)C(=O)N[C@@H]2C(=O)N3C(C(=O)O)=C(CSc4nnnn4CCO)OC[C@H]23)ns1", "values": [
      {"measurement": "MIC", "setting": "Staphylococcus aureus [1]", "result": 1, "unit": "µg/mL"},
      {"measurement": "MIC", "setting": "[2]", "result": 0.125, "unit": "µg/mL"},
      {"measurement": "MIC", "setting": "Escherichia coli", "result": 4, "unit": "µg/mL"},
      {"measurement": "MIC", "setting": "Pseudomonas aeruginosa [3]", "result": 2, "unit": "µg/mL"},
      {"measurement": "MIC", "setting": "Klebsiella pneumoniae", "result": 8, "unit": "µg/mL"},
      {"measurement": "Ratio", "setting": "Pseudomonas aeruginosa [5]", "result": 2}
    ]},
    {"molecule": "Nc1nc(/C(=N/OC2CCCC2)C(=O)N[C@@H]2C(=O)N3C(C(=O)O)=C(CSc4nncs4)OC[C@H]23)ns1", "values": [
      {"measurement": "MIC", "setting": "Staphylococcus aureus [1]", "result": 128, "unit": "µg/mL"},
      {"measurement": "MIC", "setting": "[2]", "result": 8, "unit": "µg/mL"},
      {"measurement": "MIC", "setting": "Escherichia coli", "result": 128, "unit": "µg/mL"},
      {"measurement": "MIC", "setting": "Pseudomonas aeruginosa [3]", "result": 16, "unit": "µg/mL"},
      {"measurement": "MIC", "setting": "Klebsiella pneumoniae", "result": 4, "unit": "µg/mL"}
    ]},
    {"molecule": "Nc1nc(/C(=N/OC2CCCCC2)C(=O)N[C@@H]2C(=O)N3C(C(=O)O)=C(CSc4nnnn4CCO)OC[C@H]23)ns1", "values": [
      {"measurement": "MIC", "setting": "Staphylococcus aureus [1]", "result": 2, "unit": "µg/mL"},
      {"measurement": "MIC", "setting": "[2]", "result": 64, "unit": "µg/mL"},
      {"measurement": "MIC", "setting": "Escherichia coli", "result": 32, "unit": "µg/mL"},
      {"measurement": "MIC", "setting": "Pseudomonas aeruginosa [3]", "result": 64, "unit": "µg/mL"},
      {"measurement": "MIC", "setting": "Klebsiella pneumoniae", "result": 128, "unit": "µg/mL"}
    ]},
    {"molecule": "CC(C)O/N=C(\\C(=O)N[C@@H]1C(=O)N2C(C(=O)O)=C(CSc3nncs3)OC[C@H]12)c1nsc(N)n1", "values": [
      {"measurement": "MIC", "setting": "Staphylococcus aureus [1]", "result": 32, "unit": "µg/mL"},
      {"measurement": "MIC", "setting": "[2]", "result": 1, "unit": "µg/mL"},
      {"measurement": "MIC", "setting": "Escherichia coli", "result": 128, "unit": "µg/mL"},
      {"measurement": "MIC", "setting": "Pseudomonas aeruginosa [3]", "result": 4, "unit": "µg/mL"},
      {"measurement": "MIC", "setting": "Klebsiella pneumoniae", "result": 1, "unit": "µg/mL"}
    ]},
    {"molecule": "CCCCCO/N=C(\\C(=O)N[C@@H]1C(=O)N2C(C(=O)O)=C(CSc3nncs3)OC[C@H]12)c1nsc(N)n1", "values": [
      {"measurement": "MIC", "setting": "Staphylococcus aureus [1]", "result": 64, "unit": "µg/mL"},
      {"measurement": "MIC", "setting": "[2]", "result": 64, "unit": "µg/mL"},
      {"measurement": "MIC", "setting": "Escherichia coli", "result": 128, "unit": "µg/mL"},
      {"measurement": "MIC", "setting": "Pseudomonas aeruginosa [3]", "result": 16, "unit": "µg/mL"},
      {"measurement": "MIC", "setting": "Klebsiella pneumoniae", "result": 32, "unit": "µg/mL"}
    ]},
    {"molecule": "Nc1nc(/C(=N/OC2CCCCC2)C(=O)N[C@@H]2C(=O)N3C(C(=O)O)=C(CSc4nncs4)OC[C@H]23)ns1", "values": [
      {"measurement": "MIC", "setting": "Staphylococcus aureus [1]", "result": 128, "unit": "µg/mL"},
      {"measurement": "MIC", "setting": "[2]", "result": 16, "unit": "µg/mL"},
      {"measurement": "MIC", "setting": "Escherichia coli", "result": 128, "unit": "µg/mL"},
      {"measurement": "MIC", "setting": "Pseudomonas aeruginosa [3]", "result": 16, "unit": "µg/mL"},
      {"measurement": "MIC", "setting": "Klebsiella pneumoniae", "result": 16, "unit": "µg/mL"}
    ]}
  ]
}
